We go through four compounds from ChEMBL document CHEMBL1148204, “Isolation and structure assignments of rostratins A-D, cytotoxic disulfides produced by the marine-derived fungus Exserohilum rostratum” (J Nat Prod, 2004).

SMILES strings stand for the structures. pIC50: −log10 of the molar value.

The experiment has as its system HCT-116. The experiment can be described thus: Cytotoxicity against human HCT116 cells. It is filed as functional, cell-based.
One may read the pIC50 as the negative decadic logarithm of the IC50, by convention in mol/L. A higher pIC50 goes with a small IC50. The compound `O=C1N2[C@H]3[C@H](C[C@]24SS[C@]12C[C@H]1[C@@H]([C@@H](O)CC[C@@H]1O)N2C4=O)[C@@H](O)CC[C@@H]3O` [ROSTRATIN A] showed a pIC50 of 5.05.

`O=C1CC[C@H](O)[C@H]2[C@@H]1C[C@@]13SS[C@]4(C[C@@H]5C(=O)CC[C@H](O)[C@@H]5N4C1=O)C(=O)N23` [ROSTRATIN B] gave a pIC50 of 5.36.

Consider `CO[C@H]1CC(=O)[C@H]2C[C@@]34SS[C@]5(C[C@@H]6C(=O)C[C@H](OC)[C@H](O)[C@@H]6N5C3=O)C(=O)N4[C@H]2[C@H]1O` [ROSTRATIN C], for which the negative logarithm of the IC50 (pIC50) is 5.80.

With `O=C1C[C@@H](S)[C@H](O)[C@H]2[C@@H]1C[C@@]13SS[C@]4(C[C@@H]5C(=O)C[C@@H](S)[C@H](O)[C@@H]5N4C1=O)C(=O)N23` [ROSTRATIN D], the pIC50 was 4.46.
